Converted amounts (≈) assume the structure as drawn. The source made the active and inactive calls. The calls are words filed in the database; no cut-off is given here.
Columns and labels:
Pseudomonas aeruginosa [1] = experiment: Additive antibacterial activity against multidrug-resistant Pseudomonas aeruginosa CCARM 2095 strain assessed as Oxacillin MIC by checkerboard assay; assay type: functional
Lipopolysaccharide (LPS) [2] = experiment: Binding affinity to Escherichia coli O111:B4 lipopolysaccharide assessed as suppression of FTIC labeled LPS binding to mouse RAW264.7 cells at 20 ug/ml pretreated with LPS followed by compound addition by flow cytometer assay (reference value: 67.4%); assay type: cell-based; settings: dose 20.0 µg/ml
Pseudomonas aeruginosa [3] = experiment: Additive antibacterial activity against multidrug-resistant Pseudomonas aeruginosa CCARM 2095 strain assessed as chloramphenicol fractional inhibitory concentration by checkerboard assay; assay type: functional
Staphylococcus aureus [4] = experiment: Additive antibacterial activity against multidrug-resistant Staphylococcus aureus CCARM 3089 strain assessed as fractional inhibitory concentration index in presence of chloramphenicol by checkerboard assay; assay type: functional
Pseudomonas aeruginosa [5] = experiment: Additive antibacterial activity against multidrug-resistant Pseudomonas aeruginosa CCARM 2095 strain assessed as ciprofloxacin fractional inhibitory concentration by checkerboard assay; assay type: functional
Staphylococcus aureus [6] = experiment: Additive antibacterial activity against methicillin-resistant Staphylococcus aureus CCARM 3089 strain assessed as ciprofloxacin MIC by checkerboard assay; assay type: functional
Pseudomonas aeruginosa [7] = experiment: Antibiofilm activity against multidrug-resistant Pseudomonas aeruginosa assessed as inhibition of biofilm formation; assay type: functional
Staphylococcus aureus [8] = experiment: Additive antibacterial activity against methicillin-resistant Staphylococcus aureus CCARM 3089 strain assessed as oxacillin MIC by checkerboard assay; assay type: functional
Cell membrane [9] = experiment: Induction of cell membrane depolarization in Staphylococcus aureus assessed as increase in fluorescence intensity at 2 times MIC by DiSC3(5) dye based fluorescence assay
Cell membrane [10] = experiment: Induction of cell membrane depolarization in Staphylococcus aureus assessed as fluorescence intensity at 2 to 16 times MIC by DiSC3(5) dye based fluorescence assay; assay type: subcellular
Pseudomonas aeruginosa [11] = experiment: Additive antibacterial activity against multidrug-resistant Pseudomonas aeruginosa CCARM 2095 strain assessed as fractional inhibitory concentration in presence of oxacillin by checkerboard assay; assay type: functional
Pseudomonas aeruginosa [12] = experiment: Additive antibacterial activity against multidrug-resistant Pseudomonas aeruginosa CCARM 2095 strain assessed as oxacillin fractional inhibitory concentration by checkerboard assay; assay type: functional
Cell membrane [13] = experiment: Induction of outer membrane permeabilization in Escherichia coli KCTC 1682 assessed as increase in fluorescence intensity at 2 to 8 ug/ml by NPN staining based analysis; settings: dose 2-8 µg/ml
Pseudomonas aeruginosa [14] = experiment: Additive antibacterial activity against multidrug-resistant Pseudomonas aeruginosa CCARM 2095 strain assessed as bacterial growth inhibition by checkerboard assay; assay type: functional
Lipopolysaccharide (LPS) [15] = experiment: Binding affinity to Escherichia coli O111:B4 lipopolysaccharide assessed as suppression of FTIC labeled LPS binding to mouse RAW264.7 cells at 20 ug/ml pretreated LPS with cells for 1 hr followed by compound addition measured after 1 hr by flow cytometer assay (reference value: 48.12%); assay type: cell-based; settings: dose 20.0 µg/ml
Cell membrane [16] = experiment: Induction of inner membrane permeabilization in Escherichia coli ML-35 assessed as increase in […] at 2 times MIC by ONPG staining based analysis
Pseudomonas aeruginosa [17] = experiment: Antibiofilm activity against multidrug-resistant Pseudomonas aeruginosa assessed as biofilm eradication; assay type: functional
Staphylococcus aureus [18] = experiment: Antibacterial activity against methicillin-resistant Staphylococcus aureus CCARM 3089 strain assessed as bacterial growth inhibition by checkerboard assay; assay type: functional
Pseudomonas aeruginosa [19] = experiment: Additive antibacterial activity against multidrug-resistant Pseudomonas aeruginosa CCARM 2095 strain assessed as ciprofloxacin MIC by checkerboard assay; assay type: functional
Pseudomonas aeruginosa [20] = experiment: Additive antibacterial activity against multidrug-resistant Pseudomonas aeruginosa CCARM 2095 strain assessed as fractional inhibitory concentration in presence of chloramphenicol by checkerboard assay; assay type: functional
Pseudomonas aeruginosa [21] = experiment: Additive antibacterial activity against multidrug-resistant Pseudomonas aeruginosa CCARM 2095 strain assessed as bacterial growth inhibition in presence of ciprofloxacin by checkerboard assay; assay type: functional
Lipopolysaccharide (LPS) [22] = experiment: Displacement of BODIPY-TR-cadaverine from Escherichia coli O111:B4 lipopolysaccharide assessed as increase in fluorescence at 5 ug/ml by fluorescence based assay; settings: dose 5.0 µg/ml
Pseudomonas aeruginosa [23] = experiment: Additive antibacterial activity against multidrug-resistant Pseudomonas aeruginosa CCARM 2095 strain assessed as chloramphenicol MIC by checkerboard assay; assay type: functional
Staphylococcus aureus [24] = experiment: Additive antibacterial activity against methicillin-resistant Staphylococcus aureus CCARM 3089 strain assessed as bacterial growth inhibition in presence of chloramphenicol by checkerboard assay; assay type: functional
Pseudomonas aeruginosa [25] = experiment: Additive antibacterial activity against multidrug-resistant Pseudomonas aeruginosa CCARM 2095 strain assessed as fractional inhibitory concentration in presence of ciprofloxacin by checkerboard assay; assay type: functional
Pseudomonas aeruginosa [26] = experiment: Additive antibacterial activity against multidrug-resistant Pseudomonas aeruginosa CCARM 2095 strain assessed as bacterial growth inhibition in presence of chloramphenicol by checkerboard assay; assay type: functional
Staphylococcus aureus [27] = experiment: Additive antibacterial activity against methicillin-resistant Staphylococcus aureus CCARM 3089 strain assessed as chloramphenicol MIC by checkerboard assay; assay type: functional
Pseudomonas aeruginosa [28] = experiment: Additive antibacterial activity against multidrug-resistant Pseudomonas aeruginosa CCARM 2095 strain assessed as fractional inhibitory concentration index in presence of chloramphenicol by checkerboard assay; assay type: functional
Staphylococcus aureus [29] = experiment: Additive antibacterial activity against methicillin-resistant Staphylococcus aureus CCARM 3089 strain assessed as bacterial growth inhibition in presence of ciprofloxacin by checkerboard assay; assay type: functional
Pseudomonas aeruginosa [30] = experiment: Additive antibacterial activity against multidrug-resistant Pseudomonas aeruginosa CCARM 2095 strain assessed as bacterial growth inhibition in presence of oxacillin by checkerboard assay; assay type: functional
Staphylococcus aureus [31] = experiment: Additive antibacterial activity against multidrug-resistant Staphylococcus aureus CCARM 3089 strain assessed as fractional inhibitory concentration index in presence of ciprofloxacin by checkerboard assay; assay type: functional
Cell membrane [32] = experiment: Induction of cell membrane depolarization in Staphylococcus aureus assessed as increase in fluorescence intensity at 2 times MIC by SYTOX green staining based analysis
Pseudomonas aeruginosa [33] = experiment: Additive antibacterial activity against multidrug-resistant Pseudomonas aeruginosa CCARM 2095 strain assessed as fractional inhibitory concentration index in presence of ciprofloxacin by checkerboard assay; assay type: functional
Pseudomonas aeruginosa [34] = experiment: Additive antibacterial activity against multidrug-resistant Pseudomonas aeruginosa CCARM 2095 strain assessed as fractional inhibitory concentration index in presence of oxacillin by checkerboard assay; assay type: functional
Staphylococcus aureus [35] = experiment: Additive antibacterial activity against methicillin-resistant Staphylococcus aureus CCARM 3089 strain assessed as bacterial growth inhibition in presence of oxacillin by checkerboard assay; assay type: functional
Enterococcus faecium = experiment: Antibacterial activity against vancomycin-resistant Enterococcus faecium ATCC 51559 strain assessed as bacterial growth inhibition measured at 18 to 24 hrs by microdilution assay; assay type: functional; settings: time 18-24 hrs
Escherichia coli [36] = experiment: Antibacterial activity against Escherichia coli KCTC 1682 strain assessed as bacterial growth inhibition measured after 6 hrs in presence of pepsin by radial diffusion assay; assay type: functional, organism-based
Escherichia coli [37] = experiment: Antibacterial activity against Escherichia coli KCTC 1682 strain assessed as bacterial growth inhibition measured after 6 hrs in presence of trypsin by radial diffusion assay; assay type: functional, organism-based
Escherichia coli [38] = experiment: Antibacterial activity against Escherichia coli KCTC 1682 strain assessed as bacterial growth inhibition measured after 6 hrs in presence of proteinase K by radial diffusion assay; assay type: functional, organism-based
Cell membrane [39] = experiment: Induction of cell membrane damage in Escherichia coli KCTC 1682 assessed as increase in fluorescent intensity at 2 times MIC incubated for 30 mins by PI staining based flow cytometry assay (reference value: 9.79 %); assay type: subcellular
Erythrocyte = experiment: Hemolytic activity in sheep RBC assessed as minimal hemolytic concentration causing 10% hemolysis incubated for 1 hr by ELISA; assay type: toxicity, cell-based, Ovis aries
Escherichia coli [40] = experiment: Antibacterial activity against Escherichia coli KCTC 1682 strain assessed as bacterial growth inhibition measured after 6 hrs in presence of chymotrypsin by radial diffusion assay; assay type: functional, organism-based

CC[C@H](C)[C@H](NC(=O)[C@H](CCCCN)NC(=O)[C@H](CCC(=O)O)NC(=O)[C@H](CCCCN)NC(=O)[C@H](CO)NC(=O)[C@H](CCCCN)NC(=O)[C@H](CCCNC(=N)N)NC(=O)[C@H](Cc1ccccc1)NC(=O)[C@H](Cc1ccccc1)NC(=O)[C@H](CC(=O)O)NC(=O)CNC(=O)[C@H](CC(C)C)NC(=O)[C@@H](N)CC(C)C)C(=O)NCC(=O)N[C@@H](CCCCN)C(=O)N[C@@H](CCC(=O)O)C(=O)N[C@@H](Cc1ccccc1)C(=O)N[C@@H](CCCCN)C(=O)N[C@@H](CCCNC(=N)N)C(=O)N[C@H](C(=O)N[C@H](C(=O)N[C@@H](CCC(N)=O)C(=O)N[C@@H](CCCNC(=N)N)C(=O)N[C@H](C(=O)N[C@@H](CCCCN)C(=O)N[C@@H](CC(=O)O)C(=O)N[C@@H](Cc1ccccc1)C(=O)N[C@@H](CC(C)C)C(=O)N[C@@H](CCCNC(=N)N)C(=O)N[C@@H](CC(N)=O)C(=O)N[C@@H](CC(C)C)C(=O)N[C@H](C(=O)N1CCC[C@H]1C(=O)N[C@@H](CCCNC(=N)N)C(=O)N[C@H](C(=O)N[C@@H](CCC(=O)O)C(=O)N[C@@H](CO)C(=O)O)[C@@H](C)O)C(C)C)[C@@H](C)CC)C(C)C)[C@@H](C)CC [CATHELICIDIN]
MIC (Pseudomonas aeruginosa [1]): 512 µg/mL | Flu intensity (Lipopolysaccharide (LPS) [2]): 10.4% | FIC (Pseudomonas aeruginosa [3]): 0.5 | fractional inhibitory concentration index (FICI) (Staphylococcus aureus [4]): 0.675 | FIC (Pseudomonas aeruginosa [5]): 0.25 | MIC (Staphylococcus aureus [6]): 128 µg/mL | MBEC50 (Pseudomonas aeruginosa [7]): 14.2 µM | MBEC90 (Pseudomonas aeruginosa [7]): 28.5 µM | MBIC (Pseudomonas aeruginosa [7]): >7 µM | MBIC50 (Pseudomonas aeruginosa [7]): 3.6 µM | MIC (Staphylococcus aureus [8]): 256 µg/mL | Activity (Cell membrane [9]): Active | Activity (Cell membrane [10]): inactive | FIC (Pseudomonas aeruginosa [11]): 0.25 | FIC (Pseudomonas aeruginosa [12]): 0.5 | Activity (Cell membrane [13]): Active | MIC (Pseudomonas aeruginosa [14]): 32 µg/mL | Flu intensity (Lipopolysaccharide (LPS) [15]): 18.3% | Activity (Cell membrane [16]): Active | MBEC50 (Pseudomonas aeruginosa [17]): 14.2 µM | MBEC90 (Pseudomonas aeruginosa [17]): 28.5 µM | MIC (Staphylococcus aureus [18]): 64 µg/mL | MIC (Pseudomonas aeruginosa [19]): 256 µg/mL | FIC (Pseudomonas aeruginosa [20]): 0.5 | MIC (Pseudomonas aeruginosa [21]): 16 µg/mL | Activity (Lipopolysaccharide (LPS) [22]): inactive | MIC (Pseudomonas aeruginosa [23]): 512 µg/mL | MIC (Staphylococcus aureus [24]): 32 µg/mL | FIC (Pseudomonas aeruginosa [25]): 0.5 | MIC (Pseudomonas aeruginosa [26]): 16 µg/mL | MIC (Staphylococcus aureus [27]): 64 µg/mL | fractional inhibitory concentration index (FICI) (Pseudomonas aeruginosa [28]): 1 | MIC (Staphylococcus aureus [29]): 32 µg/mL | MIC (Pseudomonas aeruginosa [30]): 8 µg/mL | fractional inhibitory concentration index (FICI) (Staphylococcus aureus [31]): 0.75 | Activity (Cell membrane [32]): Active | fractional inhibitory concentration index (FICI) (Pseudomonas aeruginosa [33]): 0.75 | fractional inhibitory concentration index (FICI) (Pseudomonas aeruginosa [34]): 0.75 | MIC (Staphylococcus aureus [35]): 32 µg/mL

CC[C@H](C)[C@H](NC(=O)CN)C(=O)NCC(=O)N[C@@H](C)C(=O)N[C@H](C(=O)N[C@@H](CC(C)C)C(=O)N[C@@H](CCCCN)C(=O)N[C@H](C(=O)N[C@@H](CC(C)C)C(=O)N[C@H](C(=O)N[C@H](C(=O)NCC(=O)N[C@@H](CC(C)C)C(=O)N1CCC[C@H]1C(=O)N[C@@H](C)C(=O)N[C@@H](CC(C)C)C(=O)N[C@H](C(=O)N[C@@H](CO)C(=O)N[C@@H](Cc1c[nH]c2ccccc12)C(=O)N[C@H](C(=O)N[C@@H](CCCCN)C(=O)N[C@@H](CCCNC(=N)N)C(=O)N[C@@H](CCCCN)C(=O)N[C@@H](CCCNC(=N)N)C(=O)N[C@@H](CCC(N)=O)C(=O)N[C@@H](CCC(N)=O)C(N)=O)[C@@H](C)CC)[C@@H](C)CC)[C@@H](C)O)[C@@H](C)O)C(C)C)C(C)C [MELITTIN]
MIC (Enterococcus faecium): 5.6 µM (≈ 15.9 µg/mL) | Activity (Cell membrane [9]): Active | Activity (Cell membrane [10]): inactive | Activity (Escherichia coli [36]): inactive | Activity (Escherichia coli [37]): inactive | Activity (Cell membrane [13]): Active | Activity (Escherichia coli [38]): inactive | Activity (Cell membrane [16]): Active | Flu intensity (Cell membrane [39]): 64.2% | Activity (Cell membrane [32]): Active | MHC (Erythrocyte): 3.2 µM | Activity (Escherichia coli [40]): inactive
